Laboratory results taken from patent publication US20240398828A1, “HETERO-ATOM CONTAINING COMPOUNDS AND USES THEREOF” (Kumquat Biosciences Inc., priority 2021, published 2024).

How the values were obtained:
PTPN2 (i.e., TC-PTP) = biological target: T1, PTPN2 (i.e., TC-PTP) (Homo sapiens, UniProt P17706); experiment: Phosphatase activity assay (DiFMUP substrate), PTPN2; format: biochemical; settings: compounds binned ≤1 uM or >1 uM
T1 sequence (P17706 1-415): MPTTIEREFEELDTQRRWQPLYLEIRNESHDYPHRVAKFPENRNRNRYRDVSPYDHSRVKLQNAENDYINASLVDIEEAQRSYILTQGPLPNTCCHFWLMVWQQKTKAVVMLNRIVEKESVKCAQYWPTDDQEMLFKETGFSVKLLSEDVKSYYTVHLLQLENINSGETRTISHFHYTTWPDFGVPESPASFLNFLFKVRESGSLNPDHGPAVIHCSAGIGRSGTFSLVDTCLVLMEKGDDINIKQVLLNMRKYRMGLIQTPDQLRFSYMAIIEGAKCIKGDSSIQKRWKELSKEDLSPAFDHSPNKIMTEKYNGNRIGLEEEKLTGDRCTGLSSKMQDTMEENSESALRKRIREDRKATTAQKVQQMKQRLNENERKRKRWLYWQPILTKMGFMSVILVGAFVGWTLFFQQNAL
Protocol: (§1) The selectivity and potency of a small molecule PTPN2 inhibitor as provided herein against one or more protein tyrosine phosphatase (PTP) enzymes, and specifically against PTPN2, is assessed in various ways. The one or more PTP enzymes comprise Mycobacterium protein tyrosine phosphatase A (mPTPA), Mycobacterium protein tyrosine phosphatase B (mPTPB), PTPN1 (i.e., PTP1B), PTPN2 (i.e., TC-PTP), PTPN22 (i.e., LYP), SHP-1, SHP-2, FAP-1, Meg2, HePTP, Laforin, VHX, VHR, LMWPTP, Cdc14A, LAR, CD45, PTPRG, a fragment thereof, a variant thereof, and a combination thereof. Selectivity and potency of a small molecule PTPN2 inhibitor is evaluated using a PTP activity inhibition assay. The assay is performed using a buffer comprising 50 mM HEPES buffer pH 7.5, 150 mM NaCl, 0.5 mM EDTA, 1 mM DTT, 0.001% Tween-20.
(§2) The assay is performed using a phosphated substrate, e.g., 10 mM 6,8-Difluoro-4-Methylumbelliferyl Phosphate (DIFMUP) that is stored at −20° C. Alternatively or in addition to, the assay is performed using other phosphated substrate (e.g., fluorescein diphosphate). Each PTP enzyme is diluted in the assay buffer
(§3) The assay can be carried out at room temperature in multiplate format, e.g., using 384 well plates. A small molecule PTPN2 inhibitor dissolved in DMSO at one of 10 concentrations from a serial dilution or DMSO alone for control is added to each well. A mixture of the assay buffer comprising PTP enzyme (e.g., 0.025 ng/ul PTPN2) is added to each well and mixed for approximately 2 minutes. The reaction is initiated by adding DiFMUP diluted in the assay buffer to a final concentration of approximately 45 μM DiFMUP in PTPN2 assay. For each PTP enzyme, DiFMUP is added at the Km (Michaelis constant) of the enzyme that had been independently determined. The phosphatase activity of the PTP enzyme is assessed by monitoring appearance of a fluorescent product (6,8-difluoro-7-hydroxyl-4-coumarin (DiFMU) from DiFMUP) continuously for about 15 to 30 minutes, using the INFINITE M1000Pro plate reader (Tecan) with excitation at 360 nm and emission at 450 nm (cutoff filter at 435 nm) for DiFMU. Each assay is performed at least in duplicate. The rate (e.g., the initial rate) of DiFMU formation is plotted against the concentration of the small molecule PTPN2 inhibitor, and the data is fitted (e.g., using a 4-parameter equation) to determine the inflection point of the fit as the IC50 of the small molecule PTPN2 inhibitor for a specific enzyme. Utilizing this assay, the ability of the compounds in Table 2 to inhibit PTPN2 and PTP1B has been assessed. Table 3 summarizes the IC50 values.

PTPN1 (i.e., PTP1B) = biological target: T2, PTPN1 (i.e., PTP1B) (Homo sapiens, UniProt P18031); experiment: Phosphatase activity assay (DiFMUP substrate), PTP1B; format: biochemical; settings: compounds binned ≤1 uM or >1 uM
T2 sequence (P18031 1-435): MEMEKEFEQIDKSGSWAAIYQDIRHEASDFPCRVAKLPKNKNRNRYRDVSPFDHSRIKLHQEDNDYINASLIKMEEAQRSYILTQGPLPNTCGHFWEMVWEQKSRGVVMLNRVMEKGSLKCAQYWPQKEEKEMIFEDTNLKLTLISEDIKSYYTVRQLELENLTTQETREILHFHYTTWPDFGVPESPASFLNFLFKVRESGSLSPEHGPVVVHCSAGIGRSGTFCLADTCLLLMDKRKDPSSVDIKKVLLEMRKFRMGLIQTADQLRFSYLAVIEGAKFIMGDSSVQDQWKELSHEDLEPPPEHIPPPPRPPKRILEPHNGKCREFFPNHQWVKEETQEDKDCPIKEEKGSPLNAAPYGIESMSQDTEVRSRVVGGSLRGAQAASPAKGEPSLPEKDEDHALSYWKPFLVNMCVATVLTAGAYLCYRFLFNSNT
Protocol: as §1, §2, §3

| SMILES | IC50 (PTPN2 (i.e., TC-PTP)) [µM] | IC50 (PTPN1 (i.e., PTP1B)) [µM] |
| --- | --- | --- |
| O=C1CN(c2c(O)ccc(-c3cn(CC4CC4)nc3F)c2F)S(=O)(=O)N1 [Compound 233, 5-(3-(1-(cyclopropylmethyl)-3-fluoro-1H-pyrazol-4-yl)-2-fluoro-6-hydroxyphenyl)-1,2,5-thiadiazolidin-3-one 1,1-dioxide] | ≤ 1 | ≤ 1 |
| O=C1CN(c2c(O)ccc(-c3c[nH]c(C4CC4)c3)c2F)S(=O)(=O)N1 [Compound 394, 5-(3-(5-cyclopropyl-1H-pyrrol-3-yl)-2-fluoro-6-hydroxyphenyl)-1,2,5-thiadiazolidin-3-one 1,1-dioxide] | ≤ 1 | ≤ 1 |
| O=C1CN(c2c(O)ccc(-c3cc(N4CC(F)(F)C4)n[nH]3)c2F)S(=O)(=O)N1 [Compound 451, 5-(3-(3-(3,3-difluoroazetidin-1-yl)-1H-pyrazol-5-yl)-2-fluoro-6-hydroxyphenyl)-1,2,5-thiadiazolidin-3-one 1,1-dioxide] | ≤ 1 | ≤ 1 |
| O=C1CN(c2c(O)ccc(-c3cn(CC(F)F)nc3F)c2F)S(=O)(=O)N1 [Compound 488, 5-(3-(1-(2,2-difluoroethyl)-3-fluoro-1H-pyrazol-4-yl)-2-fluoro-6-hydroxyphenyl)-1,2,5-thiadiazolidin-3-one 1,1-dioxide] | ≤ 1 | ≤ 1 |
| COc1cc(-c2ccc(O)c(N3CC(=O)NS3(=O)=O)c2F)[nH]n1 [Compound 428, 5-(2-fluoro-6-hydroxy-3-(3-methoxy-1H-pyrazol-5-yl)phenyl)-1,2,5-thiadiazolidin-3-one 1,1-dioxide] | ≤ 1 | ≤ 1 |
| CN(C)C1CCN(c2cc(-c3ccc(O)c(N4CC(=O)NS4(=O)=O)c3F)[nH]n2)C1 (centres unmarked) [Compound 397, 5-(3-(3-(3-(dimethylamino)pyrrolidin-1-yl)-1H-pyrazol-5-yl)-2-fluoro-6-hydroxyphenyl)-1,2,5-thiadiazolidin-3-one 1,1-dioxide] | ≤ 1 | ≤ 1 |
| NCC1CCCN1c1cc(-c2ccc(O)c(N3CC(=O)NS3(=O)=O)c2F)[nH]n1 (centres unmarked) [Compound 308, 5-(3-(3-(2-(aminomethyl)pyrrolidin-1-yl)-1H-pyrazol-5-yl)-2-fluoro-6-hydroxyphenyl)-1,2,5-thiadiazolidin-3-one 1,1-dioxide] | ≤ 1 | ≤ 1 |
| O=C1CN(c2c(O)ccc(-c3cn(C4CCOCC4)cn3)c2F)S(=O)(=O)N1 [Compound 328, 5-(2-fluoro-6-hydroxy-3-(1-(tetrahydro-2H-pyran-4-yl)-1H-imidazol-4-yl)phenyl)-1,2,5-thiadiazolidin-3-one 1,1-dioxide] | ≤ 1 | ≤ 1 |
| O=C1CN(c2c(O)ccc(-c3cnn(CCC4CCCOC4)c3)c2F)S(=O)(=O)N1 (centres unmarked) [Compound 154, 5-(2-fluoro-6-hydroxy-3-(1-(2-(tetrahydro-2H-pyran-3-yl)ethyl)-1H-pyrazol-4-yl)phenyl)-1,2,5-thiadiazolidin-3-one 1,1-dioxide] | ≤ 1 | ≤ 1 |
| Cn1cc(-c2ccc(O)c(N3CC(=O)NS3(=O)=O)c2F)c(F)n1 [Compound 110, 5-(2-fluoro-3-(3-fluoro-1-methyl-1H-pyrazol-4-yl)-6-hydroxyphenyl)-1,2,5-thiadiazolidin-3-one 1,1-dioxide] | ≤ 1 | ≤ 1 |
| O=C1CN(c2c(O)ccc(-c3cnn(Cc4cccnc4)c3)c2F)S(=O)(=O)N1 [Compound 187, 5-(2-fluoro-6-hydroxy-3-(1-(pyridin-3-ylmethyl)-1H-pyrazol-4-yl)phenyl)-1,2,5-thiadiazolidin-3-one 1,1-dioxide] | ≤ 1 | ≤ 1 |
| NC(=O)C1CC1c1cc(-c2ccc(O)c(N3CC(=O)NS3(=O)=O)c2F)[nH]n1 (centres unmarked) [Compound 533, 2-(5-(3-(1,1-dioxido-4-oxo-1,2,5-thiadiazolidin-2-yl)-2-fluoro-4-hydroxyphenyl)-1H-pyrazol-3-yl)cyclopropane-1-carboxamide] | ≤ 1 | ≤ 1 |
| COc1cccc(Cn2cc(-c3ccc(O)c(N4CC(=O)NS4(=O)=O)c3F)cn2)c1 [Compound 127, 5-(2-fluoro-6-hydroxy-3-(1-(3-methoxybenzyl)-1H-pyrazol-4-yl)phenyl)-1,2,5-thiadiazolidin-3-one 1,1-dioxide] | ≤ 1 | ≤ 1 |
| CC(C)CCc1cc(-c2ccc(O)c(N3CC(=O)NS3(=O)=O)c2F)nn1C [Compound 380, 5-(2-fluoro-6-hydroxy-3-(5-isopentyl-1-methyl-1H-pyrazol-3-yl)phenyl)-1,2,5-thiadiazolidin-3-one 1,1-dioxide] | ≤ 1 | ≤ 1 |
| O=C1CN(c2c(O)ccc(-c3cc(CCC(F)(F)F)n[nH]3)c2F)S(=O)(=O)N1 [Compound 415, 5-(2-fluoro-6-hydroxy-3-(3-(3,3,3-trifluoropropyl)-1H-pyrazol-5-yl)phenyl)-1,2,5-thiadiazolidin-3-one 1,1-dioxide] | ≤ 1 | ≤ 1 |
| O=C1CN(c2c(O)ccc(-c3cc(C4CC4(F)F)nn3CC(F)F)c2F)S(=O)(=O)N1 (centres unmarked) [Compound 491, 5-(3-(3-(2,2-difluorocyclopropyl)-1-(2,2-difluoroethyl)-1H-pyrazol-5-yl)-2-fluoro-6-hydroxyphenyl)-1,2,5-thiadiazolidin-3-one 1,1-dioxide] | ≤ 1 | ≤ 1 |
| CC(C)CNCc1cc(-c2ccc(O)c(N3CC(=O)NS3(=O)=O)c2F)[nH]n1 [Compound 436, 5-(2-fluoro-6-hydroxy-3-(3-((isobutylamino)methyl)-1H-pyrazol-5-yl)phenyl)-1,2,5-thiadiazolidin-3-one 1,1-dioxide] | ≤ 1 | ≤ 1 |
| Cc1cn(-c2ccc(O)c(N3CC(=O)NS3(=O)=O)c2F)nc1O [Compound 299, 5-(2-fluoro-6-hydroxy-3-(3-hydroxy-4-methyl-1H-pyrazol-1-yl)phenyl)-1,2,5-thiadiazolidin-3-one 1,1-dioxide] | ≤ 1 | ≤ 1 |
| CCn1cc(-c2ccc(O)c(N3CC(=O)NS3(=O)=O)c2F)cn1 [Compound 486, 5-(3-(1-ethyl-1H-pyrazol-4-yl)-2-fluoro-6-hydroxyphenyl)-1,2,5-thiadiazolidin-3-one 1,1-dioxide] | ≤ 1 | ≤ 1 |
| CC(C)CCn1cc(-c2ccc(O)c(N3CC(=O)NS3(=O)=O)c2F)c(=O)[nH]1 [Compound 444, 5-(2-fluoro-6-hydroxy-3-(1-isopentyl-3-oxo-2,3-dihydro-1H-pyrazol-4-yl)phenyl)-1,2,5-thiadiazolidin-3-one 1,1-dioxide] | ≤ 1 | ≤ 1 |
| CC(C1CCCCC1)n1cnc(-c2ccc(O)c(N3CC(=O)NS3(=O)=O)c2F)c1 (centres unmarked) [Compound 413, 5-(3-(1-(1-cyclohexylethyl)-1H-imidazol-4-yl)-2-fluoro-6-hydroxyphenyl)-1,2,5-thiadiazolidin-3-one 1,1-dioxide] | > 1 | – |
